Measurements reported in PubChem BioAssay (NCI).
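Values below derive from 48-hour exposures of cells grown in 96-well plates, with endpoints linearly interpolated between the two concentrations bracketing the appropriate inhibition level. Abbreviation: GI50, concentration required for 50% inhibition of growth. At the TGI there is no net growth.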

Tests used:
Assay in all cases: NCI tumour cell line growth inhibition, 48 h
HOP-18 NSCLC = tested on: HOP-18 NSCLC
KM20L2 colon = tested on: KM20L2 colon
LXFL 529 NSCLC = tested on: LXFL 529 NSCLC
XF 498 CNS = tested on: XF 498 CNS
DMS 114 small cell lung = tested on: DMS 114 small cell lung
DMS 273 small cell lung = tested on: DMS 273 small cell lung
RXF-631 renal = tested on: RXF-631 renal
SNB-78 CNS = tested on: SNB-78 CNS
MDA-N = tested on: MDA-N

| Structure (SMILES) | TGI (HOP-18 NSCLC) | TGI (KM20L2 colon) | TGI (LXFL 529 NSCLC) | TGI (XF 498 CNS) | TGI (DMS 114 small cell lung) | TGI (DMS 273 small cell lung) | TGI (RXF-631 renal) | TGI (SNB-78 CNS) | TGI (MDA-N) | also measured |
| --- | --- | --- | --- | --- | --- | --- | --- | --- | --- | --- |
| COC(=O)c1cc(=O)nc2cc3cccccc3n12 | > 100 µM | > 100 µM | > 100 µM | > 100 µM |  |  |  |  |  |  |
| O=C1c2ccccc2C(=O)C12CCc1ccccc12 | > 100 µM | > 100 µM | > 100 µM | > 100 µM | > 100 µM | > 100 µM | > 100 µM | > 100 µM |  |  |
| O=C1/C(=C\c2ccco2)Oc2ccccc21 |  |  |  |  |  |  |  |  | > 100 µM |  |
| CC(/C=C/C(O)=C1/C(=O)CNC1=O)=C\[C@@H](C)[C@H]1O[C@@]2(C)O[C@H](C(=O)[C@@H]3O[C@@]32C)[C@@H]1C |  |  |  |  |  |  |  |  | > 100 µM |  |
| COc1ccc(/C=C2\CCC(CCN(C)C)(C3=CCCC3)C2=O)cc1 (configuration not stated) | 66.5 µM | 28.3 µM | 30.4 µM |  | 31.2 µM | 31.1 µM |  | 56.2 µM |  |  |
| O=[N+]([O-])c1cc([As](Br)c2ccc(O)c([N+](=O)[O-])c2)ccc1O |  |  |  |  |  |  |  |  | 3.4 µM |  |
| CC(=O)OC(C(=O)[O][Sn]([CH3])([CH3])[CH3])c1ccccc1 (configuration not stated) | > 100 µM | > 100 µM | > 100 µM |  | > 100 µM |  | > 100 µM | > 100 µM |  | GI50 (DMS 114 small cell lung): > 100 µM; GI50 (HOP-18 NSCLC): > 100 µM; GI50 (KM20L2 colon): > 100 µM; GI50 (LXFL 529 NSCLC): 99.5 µM; GI50 (RXF-631 renal): > 100 µM; GI50 (SNB-78 CNS): > 100 µM |
| CSc1ncnc2c1ncn2CC(=O)C1CCC2C3CCC4=CC(=O)CCC4(C)C3CCC12C (configuration not stated) |  |  |  |  |  |  |  |  | 12.4 µM |  |
| CO[C@H]1/C=C/O[C@@]2(C)Oc3c(C)c(O)c4c(O)c(c(/C=N/N5CCN(C)CC5)c(O)c4c3C2=O)NC(=O)/C(C)=C\C=C\[C@H](C)[C@H](O)[C@@H](C)[C@@H](O)[C@@H](C)[C@H](OC(C)=O)[C@@H]1C |  |  |  |  |  |  |  |  | > 100 µM |  |
| N=c1c2ccccc2sc2nc3ccccc3n12 | > 100 µM |  | > 100 µM | > 100 µM | > 100 µM | > 100 µM |  | > 100 µM |  |  |
| CCOC(=O)C1Cc2ccc3c4c(ccc(c24)C1)CC(C(=O)OCC)C3 | > 100 µM | > 100 µM |  | > 100 µM | > 100 µM | > 100 µM |  | > 100 µM |  |  |
| CN(C)C(=S)/N=c1\ssc(=S)n1C | > 100 µM | > 100 µM | > 100 µM | > 100 µM | > 100 µM | > 100 µM | > 100 µM | > 100 µM |  |  |
| CC1=Nc2ccccc2SC(c2c(Cl)cccc2Cl)C1 (configuration not stated) | 11.1 µM | 2.98 µM | 1.69 µM | 3.21 µM | 3.19 µM | 2.19 µM |  | 23.8 µM |  |  |
| COc1ccccc1-c1cc(=O)c2cc(C)c(C)c(C(=O)O)c2o1 |  | > 100 µM | > 100 µM | > 100 µM | > 100 µM | > 100 µM |  | > 100 µM |  |  |
| C[N+](C)(C)CC1CCCCC1=O (configuration not stated) | 30.4 µM | 4.65 µM |  |  | > 100 µM | > 100 µM |  |  |  |  |
| CN/N=C(/c1nc2ccc([N+](=O)[O-])cc2[nH]c1=O)C(O)c1ccc(C(O)/C(=N\NC)c2nc3ccc([N+](=O)[O-])cc3[nH]c2=O)cc1 (configuration not stated) |  | > 100 µM | > 100 µM |  | > 100 µM | > 100 µM | > 100 µM | > 100 µM |  |  |
| COc1ccc2c(c1)CN([C@@H](C)[C@H]1CC[C@H]3[C@@H]4CC[C@H]5C[C@@H](O)CC[C@]5(C)[C@H]4CC[C@]13C)CO2 |  |  |  |  |  |  |  |  | 3.38 µM |  |

| Structure (SMILES) | TGI (HOP-18 NSCLC) | TGI (KM20L2 colon) | TGI (LXFL 529 NSCLC) | TGI (XF 498 CNS) | TGI (DMS 114 small cell lung) | TGI (DMS 273 small cell lung) | TGI (RXF-631 renal) | TGI (SNB-78 CNS) | TGI (MDA-N) | also measured |
| --- | --- | --- | --- | --- | --- | --- | --- | --- | --- | --- |
| CC1CC2(S(=O)(=O)c3ccccc3)ON1CC2S(=O)(=O)c1ccccc1 (configuration not stated) |  | > 100 µM | > 100 µM | > 100 µM | > 100 µM | > 100 µM | > 100 µM |  |  |  |
| CN(C)N1C(=O)SCC(c2ccccc2)(c2ccccc2)C1=O |  |  |  |  |  |  |  |  | > 100 µM |  |
| Nc1nc(N)c2cc(Sc3ccc4ccccc4c3)ccc2n1 |  |  |  |  |  |  |  |  | 4.66 µM |  |
| CCCc1nc(Cl)nc(Cl)c1Cl |  |  |  |  |  |  |  |  | 0.398 µM |  |
| COc1cc2c(c3c1c(=O)c1ccccc1n3C)C=CC(C)(C)O2 | > 100 µM | > 100 µM | > 100 µM |  | > 100 µM | > 100 µM |  | > 100 µM |  |  |
| CCOc1cccc2c1N[S@@](=O)S2 |  | > 100 µM | > 100 µM | > 100 µM |  | > 100 µM | > 100 µM | > 100 µM |  |  |
| CCOc1ccc(N=C2NC(=O)C(CC(=O)Nc3ccccc3[N+](=O)[O-])S2)cc1 (configuration not stated) |  | > 100 µM | > 100 µM | > 100 µM | > 100 µM | > 100 µM |  | > 100 µM |  |  |
| COc1ccc(/C=C(\NC(=O)c2ccccc2)c2nc3ccccc3[nH]2)cc1OC | > 100 µM | > 100 µM | > 100 µM | > 100 µM | > 100 µM |  | > 100 µM | > 100 µM |  |  |
| C1=Cc2nc1c(-c1ccccc1)c1ccc([nH]1)c(-c1ccccc1)c1nc(c(-c3ccccc3)c3ccc([nH]3)c2-c2ccccc2)C=C1 | > 100 µM | > 100 µM | > 100 µM |  | > 100 µM | > 100 µM | > 100 µM | > 100 µM |  |  |
| COc1ccc(O)c(C(=O)CCC(=O)O)c1 |  |  | > 100 µM | > 100 µM | > 100 µM | > 100 µM | > 100 µM | > 100 µM |  |  |
| Clc1ccccc1CN1COc2c(ccc3cccnc23)C1 |  | 35.9 µM |  | 22.4 µM | 6.19 µM | 11.1 µM |  | 14 µM |  |  |
| C=CC(C)(C)n1cc(C2=C(O)C(=O)C(c3cn(C(C)(C)C=C)c4ccccc34)=C(O)C2=O)c2ccccc21 |  |  |  |  |  |  |  |  | 4.98 µM |  |
| C=C1C(=O)OC2C1CCC(C)C1(O)C=CC(=O)C21C (configuration not stated) |  |  |  |  |  |  |  |  | > 10 µM |  |
| CCCC(=O)N[C@H]1CCc2cc(OC)c(OC)c(OC)c2-c2ccc(SC)c(=O)cc21 | > 100 µM | < 0.01 µM | > 100 µM |  | < 0.01 µM | > 100 µM | 1.42 µM | > 100 µM | < 0.01 µM |  |
| COC(=O)C(=O)C(CC(=O)Nc1ccc(C)cc1)C(=O)OC (configuration not stated) | > 100 µM | > 100 µM | > 100 µM | > 100 µM | > 100 µM |  | > 100 µM | > 100 µM |  |  |
| C=C1C(=O)C23[C@H](O)C1CC[C@H]2[C@]12COC3(O)[C@@H](O)[C@@H]1C(C)(C)CC[C@@H]2O | 24.6 µM | 28.3 µM | 2.56 µM | 9.82 µM | 21.3 µM | 27.3 µM | 22.7 µM | 16.4 µM |  |  |
| CN(C)c1ccc(/C=C(\NC(=O)c2ccccc2)c2nc3ccc4c(c3[nH]2)C(=O)c2ccccc2C4=O)cc1 |  | > 100 µM | > 100 µM |  | > 100 µM | > 100 µM | > 100 µM | > 100 µM |  |  |
